Laboratory results as given in patent publication US10947237B2, “Antimicrobial compounds and methods of making and using the same” (BIOVERSYS AG, priority 2015, dated 2021).

Experiments:
[1] = test system: Staphylococcus aureus (S. aureus) 11540 strain; assay: standard microdilution assay, minimum inhibitory concentration (MIC); assay type: cell-based
Method: (§1) The in vitro activity of the compounds of the present disclosure can be determined. Antimicrobial testing is typically performed to determine the minimum inhibitory concentration (MIC). Minimum inhibitory concentrations (MICs) are determined by the microdilution method in a final volume of 100 μl according to protocols outlined by The Clinical and Laboratory Standards Institute (CLSI). Performance standards for reference strains are assessed within the same experimental design to maintain quality control. See, for example, Clinical Laboratory Standards Institute: Methods for dilution antimicrobial susceptibility tests for bacteria that grow aerobically M7-A8. Approved Standard-Eighth Edition. Wayne, Pa.: CLSI; December 2008; and Clinical Laboratory Standards Institute: Performance Standards for Antimicrobial Susceptibility Testing M100-S20; Approved Standard-Twentieth Edition. Wayne, Pa.: CLSI; June 2010. The compounds of the present disclosure were tested for antimicrobial activity. The Compounds 1-149 were run against Eschericia coli (E. Coli) strain ATCC25922 and against Staphylococcus aureus (S. aureus) 11540 strain using a standard microdilution assay to determine minimum inhibitory concentrations (MICs). […] It will be recognized by one skilled in the art that the compounds can be assessed against other bacterial organisms and that the presentation of data for activity against Eschericia coli and Staphylococcus aureus are illustrative and in no way is intended to limit the scope of the present disclosure. The compounds of the present disclosure can be assayed against a range of other microorganisms depending upon the performance activity desired to be gathered. Furthermore, the “+” and “−” representation and the selection of a cutoff value of 16 micrograms/mL is also illustrative and in no way is intended to limit the scope of the present disclosure.

[2] = test system: Eschericia coli (E. Coli) strain ATCC25922; assay: as above; assay type: cell-based; conditions: Escherichia coli
Method: as §1

Row | SMILES | MIC ([1]; Table 2, 11540 strain) [µg/mL] | MIC ([2]; Table 2, strain ATCC25922) [µg/mL] | MIC ([1]; Table 2a) [µg/mL] | MIC ([2]; ATCC25922, Table 2a) [µg/mL]
1 | CC(C)C(=N)NCC[C@@H]1CCC[C@@H](c2ccc(-n3cc4cc(-c5cc(CCC[C@H](C)N)cc(Cl)c5F)[nH]c4nc3=O)cc2)N1 [Compound 82] | ≤ 16 | ≤ 16 |  | 
2 | C[C@H](N)CCCc1cc(Cl)c(F)c(-c2cc3cn(-c4ccc([C@H]5CCC[C@H](CCNC(=N)N)C5)cc4)c(=O)nc3[nH]2)c1 [Compound 35] | ≤ 16 | ≤ 16 |  | 
3 | N=C(N)NCC[C@@H]1C[C@H](CN)O[C@@H](c2ccc(-n3cc4cc(C5CCNC5)[nH]c4nc3=O)cc2)C1 (some centres unmarked) [Compound 98] | > 16 | > 16 |  | 
4 | C[C@H](N)CCCc1cc(Cl)c(F)c(-c2cc3cn(-c4ccc([C@@H]5CCC[C@@H](CCNc6ncccn6)N5)cc4)c(=O)nc3[nH]2)c1 [Compound 12] | > 16 | > 16 |  | 
5 | O=c1nc2[nH]c(C3CCNC3)cc2cn1-c1ccc([C@@H]2CCC[C@@H](CCc3ncc[nH]3)N2)cc1 (some centres unmarked) [Compound 130] | > 16 | ≤ 16 |  | 
6 | N=C(N)NCC[C@H](CF)NCc1ccc(-n2cc3cc(C4CCNC4)[nH]c3nc2=O)cc1 (some centres unmarked) [Compound 126] | > 16 | > 16 |  | 
7 | C[C@H](N)CCCc1cc(Cl)c(F)c(-c2cc3cn(-c4ccc(N5CCO[C@@H](CCNC(=N)N)C5)cc4)c(=O)nc3[nH]2)c1 [Compound 134] | ≤ 16 | ≤ 16 |  | 
8 | C=C[C@@H](CCNC(=N)N)OCc1ccc(-n2cc3cc(-c4cc(CCC[C@H](C)N)cc(Cl)c4F)[nH]c3nc2=O)cc1 [Compound 132] | ≤ 16 | ≤ 16 |  | 
9 | CC(=N)NC[C@@H](CCNC(=N)N)NCc1ccc(-n2cc3cc(-c4cc(CCC[C@H](C)N)cc(Cl)c4F)[nH]c3nc2=O)cc1 [Compound 67] | ≤ 16 | ≤ 16 |  | 
10 | C[C@H](N)CCCc1cc(Cl)c(F)c(-c2cc3cn(-c4ccc([C@@H]5CCC[C@@H](CCn6ccoc6=O)N5)cc4)c(=O)nc3[nH]2)c1 [Compound 17] | ≤ 16 | ≤ 16 |  | 
11 | C=C[C@H](N)CCCc1cc(Cl)c(F)c(-c2cc3cn(-c4ccc(CO[C@H](CCNC(=N)N)CNC(=N)N)cc4)c(=O)nc3[nH]2)c1 [Compound 160] |  |  | ≤ 16 | ≤ 16
12 | Cc1ccncc1NC[C@@H](CCNC(=N)N)NCc1ccc(-n2cc3cc(-c4cc(CCC[C@H](C)N)cc(Cl)c4F)[nH]c3nc2=O)cc1 [Compound 65] | ≤ 16 | ≤ 16 |  | 
13 | C=C[C@@H](CCNC(=N)N)OCc1ccc(-n2cc3cc(CCNC4CCNCC4)[nH]c3nc2=O)cc1 [Compound 93] | > 16 | > 16 |  | 
14 | C[C@H](N)CCCc1cc(Cl)c(F)c(-c2cc3cn(-c4ccc(CO[C@H](CCNC(=N)N)CNC(=N)N)cc4)c(=O)nc3[nH]2)c1 [Compound 64] | ≤ 16 | ≤ 16 |  | 
15 | C[C@H](N)CCCc1cc(Cl)c(F)c(-c2cc3cn(-c4ccc(CN[C@H](CCNC(=N)N)CCc5cnc(N)s5)cc4)c(=O)nc3[nH]2)c1 [Compound 24] | ≤ 16 | ≤ 16 |  | 
16 | C[C@H](N)CCCc1cc(Cl)c(F)c(-c2cc3cn(-c4ccc([C@@H]5C/C(=C/CNC(=N)N)CC(CO)O5)cc4)c(=O)nc3[nH]2)c1 (some centres unmarked) [Compound 89] | ≤ 16 | ≤ 16 |  | 
17 | N=C(N)NCC[C@H](CNC(=N)N)OCc1ccc(-n2cc3cc(CCNC4CCNCC4)[nH]c3nc2=O)cc1 [Compound 114] | ≤ 16 | ≤ 16 |  | 
18 | C[C@H](N)CCCc1cc(Cl)c(F)c(-c2cc3cn(-c4ccc(CN[C@H](CCNC(=N)N)CNc5cccc6sccc56)cc4)c(=O)nc3[nH]2)c1 [Compound 36] | ≤ 16 | ≤ 16 |  | 
19 | C[C@H](N)CCCc1cc(Cl)c(F)c(-c2cc3cn(-c4ccc([C@@H]5CCC[C@@H](CCNC(=N)C6CCC6)N5)cc4)c(=O)nc3[nH]2)c1 [Compound 84] | ≤ 16 | ≤ 16 |  | 
20 | CC(=N)NCC[C@H]1CCC[C@H](c2ccc(-n3cc4cc(-c5cc(CCC[C@H](C)N)cc(Cl)c5F)[nH]c4nc3=O)cc2)N1 [Compound 1] | ≤ 16 | ≤ 16 |  | 

Row | SMILES | MIC ([1]; Table 2, 11540 strain) [µg/mL] | MIC ([2]; Table 2, strain ATCC25922) [µg/mL] | MIC ([1]; Table 2a) [µg/mL] | MIC ([2]; ATCC25922, Table 2a) [µg/mL]
21 | C[C@H](N)CCCc1cc(Cl)c(F)c(-c2cc3cn(-c4ccc([C@H]5CC(N)C[C@H](CCN)O5)cc4)c(=O)nc3[nH]2)c1 (some centres unmarked) [Compound 127] | ≤ 16 | ≤ 16 |  | 
22 | N=C(N)NCC[C@H]1CC(N)C[C@H](c2ccc(-n3cc4cc(C5CCNC5)[nH]c4nc3=O)cc2)O1 (some centres unmarked) [Compound 121] | > 16 | ≤ 16 |  | 
23 | CC1=NCC[C@@H]2CCC[C@@H](c3ccc(-n4cc5cc(CCNC6CCNCC6)[nH]c5nc4=O)cc3)N12 [Compound 118] | > 16 | > 16 |  | 
24 | C[C@H](N)CCCc1cc(Cl)c(F)c(-c2cc3cn(-c4ccc(CO[C@H](CCNC(=N)N)CN(C)C)cc4)c(=O)nc3[nH]2)c1 [Compound 159] |  |  | ≤ 16 | ≤ 16
25 | N=C(N)NCC[C@H](CNC(=N)N)OCc1ccc(-n2cc3cc(-c4cc(CCC[C@@H](N)CF)cc(Cl)c4F)[nH]c3nc2=O)cc1 [Compound 162] |  |  | ≤ 16 | ≤ 16
26 | COc1ccnc(NC[C@@H](CCNC(=N)N)NCc2ccc(-n3cc4cc(-c5cc(CCC[C@H](C)N)cc(Cl)c5F)[nH]c4nc3=O)cc2)c1 [Compound 47] | ≤ 16 | ≤ 16 |  | 
27 | Cc1nc(NC[C@@H](CCNC(=N)N)NCc2ccc(-n3cc4cc(-c5cc(CCC[C@H](C)N)cc(Cl)c5F)[nH]c4nc3=O)cc2)sc1C [Compound 50] | ≤ 16 | ≤ 16 |  | 
28 | C[C@H](N)CCCc1cc(Cl)c(F)c(-c2cc3cn(-c4ccc(CN[C@@H](CCO)CCNC(=N)N)cc4)c(=O)nc3[nH]2)c1 [Compound 13] | ≤ 16 | ≤ 16 |  | 
29 | C[C@H](N)CCCc1cc(Cl)c(F)c(-c2cc3cn(-c4ccc(CN[C@@H](CCN)CCNC(=N)N)cc4)c(=O)nc3[nH]2)c1 [Compound 57] | ≤ 16 | ≤ 16 |  | 
30 | N=C(N)NCC[C@@H]1C[C@H](CN)O[C@@H](c2ccc(-n3cc4cc(CCNC5CCNCC5)[nH]c4nc3=O)cc2)C1 [Compound 99] | > 16 | ≤ 16 |  | 
31 | C[C@H](N)CCCc1cc(Cl)c(F)c(-c2cc3cn(-c4ccc(CO[C@H](CCNC(N)=O)CNC(=N)N)cc4)c(=O)nc3[nH]2)c1 [Compound 170] |  |  | ≤ 16 | ≤ 16
32 | C[C@H](N)CCCc1cc(Cl)c(F)c(-c2cc3cn(-c4ccc([C@H]5CC[C@H](CCNC(=N)N)O5)cc4)c(=O)nc3[nH]2)c1 [Compound 74] | ≤ 16 | ≤ 16 |  | 
33 | C[C@H](N)CCCc1cc(Cl)c(F)c(-c2cc3cn(-c4ccc(CN[C@H](CCNC(=N)N)CNc5ncns5)cc4)c(=O)nc3[nH]2)c1 [Compound 38] | ≤ 16 | ≤ 16 |  | 
34 | C[C@H](N)CCCc1cc(Cl)c(F)c(-c2cc3cn(-c4ccc([C@H]5CC(N)C[C@H](CCNC(=N)N)O5)cc4)c(=O)nc3[nH]2)c1 (some centres unmarked) [Compound 119] | ≤ 16 | ≤ 16 |  | 
35 | COc1ccc(NC[C@@H](CCNC(=N)N)NCc2ccc(-n3cc4cc(-c5cc(CCC[C@H](C)N)cc(Cl)c5F)[nH]c4nc3=O)cc2)nn1 [Compound 39] | ≤ 16 | ≤ 16 |  | 
36 | C[C@H](N)CCCc1cc(Cl)c(F)c(-c2cc3cn(-c4ccc(CO[C@H](CCNC(=N)N)CNc5ncc[nH]5)cc4)c(=O)nc3[nH]2)c1 [Compound 76] | ≤ 16 | ≤ 16 |  | 
37 | C[C@H](N)CCCc1cc(Cl)c(F)c(-c2cc3cn(-c4ccc([C@H]5C[C@H](CCNC(=N)N)C[C@H](CN)O5)cc4)c(=O)nc3[nH]2)c1 [Compound 96] | ≤ 16 | ≤ 16 |  | 
38 | CC(=N)NCC[C@@H](CN)OCc1ccc(-n2cc3cc(-c4cc(CCC[C@H](C)N)cc(Cl)c4F)[nH]c3nc2=O)cc1 [Compound 178] |  |  | ≤ 16 | ≤ 16
39 | N=C(N)NCC[C@H]1CN(c2ccc(-n3cc4cc(C5CCNC5)[nH]c4nc3=O)cc2)CCO1 (some centres unmarked) [Compound 145] | > 16 | > 16 |  | 
40 | C[C@H](N)CCCc1cc(Cl)c(F)c(-c2cc3cn(-c4ccc([C@@H]5CCC[C@@H](C[C@H](O)c6ccn[nH]6)N5)cc4)c(=O)nc3[nH]2)c1 [Compound 23] | ≤ 16 | > 16 |  | 
